Patent publication US20240197823A1, “CATIONIC ANTIMICROBIAL PEPTIDES AND USES THEREOF” (priority 2021, published 2024)
≈ marks a conversion by molar mass, not a printed value. Where two headings read alike, the source gives them in different places.

What was measured:
[1] = tested on: MDR panel of gram-negative (GNB) and -positive (GPB) bacterial isolates classified as ESKAPE pathogens
Protocol: (§1) Bacteria. Bacterial clinical isolates, used for initial screening and in previous studies [Greber K E et al., 2017], were anonymously provided by the clinical microbiology laboratory of the University of Pittsburgh medical Center. The panel used for secondary screening was from CDC (Table 4), with resistance profiles data. Bacteria are stored in lock-secured −80° C. freezer and typically retrieved by obtaining single colonies on agar plates prior for subsequent liquid broth cultures. Suspensions of test bacteria were prepared from log phase of growth by diluting overnight cultures at 1:100 with fresh cation-adjusted MHB (MHB2, Millipore Sigma, USA) and incubating for additional 3-4 hours. Bacteria were spun at 3000×g for 10 minutes and the pellet resuspended in test condition media (Millipore Sigma, USA) to determine bacterial turbidity using a Den-1B densitometer (Grant Instruments, USA) at 0.5 McFarland (unit of bacterial density) corresponding to […].
Antibacterial assays. To examine antibacterial activity, this study used minor modifications of a standard growth inhibition assay endorsed by the Clinical and Laboratory Standards Institute (CLSI), as previously described [Greber K E et al., 2017]. Bacteria were incubated with each of the indicated peptides in MHB2. The bacterial cells were kept in an incubator for 18 hours at 37° C., which is linked to a robotic system that feeds a plate reader every hour with one of 8×96-well plates. This set-up allows the collection of growth kinetic data at A 570 (absorbance at 570 nm) to examine growth inhibition in real time (BioTek Instruments, USA). […] To assess bactericidal properties of the peptide, the assay was modified by using 15% fetal bovine serum (FBS, for a more physiologically relevant test condition) mixed with 25% MHB2 and 60% PBS. Bacterial cells (colony forming unit/mL or CFU/mL) were enumerated after incubating treated bacteria for 3 hours and plating serially diluted samples on broth agar medium at 37° C. overnight. […] Data were analyzed using GraphPad Prism software.

A. baumannii = assay: microbe, parasite or virus in culture
Protocol: as §1
(§2) Antibacterial assays. To examine antibacterial activity, this study used minor modifications of a standard growth inhibition assay endorsed by the Clinical and Laboratory Standards Institute (CLSI), as previously described [Greber K E et al., 2017]. Bacteria were incubated with each of the indicated peptides in MHB2. The bacterial cells were kept in an incubator for 18 hours at 37° C., which is linked to a robotic system that feeds a plate reader every hour with one of 8×96-well plates. This set-up allows the collection of growth kinetic data at A 570 (absorbance at 570 nm) to examine growth inhibition in real time (BioTek Instruments, USA). […] To assess bactericidal properties of the peptide, the assay was modified by using 15% fetal bovine serum (FBS, for a more physiologically relevant test condition) mixed with 25% MHB2 and 60% PBS. Bacterial cells (colony forming unit/mL or CFU/mL) were enumerated after incubating treated bacteria for 3 hours and plating serially diluted samples on broth agar medium at 37° C. overnight. […] For killing kinetics, we slightly modified the bactericidal assay to examine bacterial killing at the MBC (or 2×MBC) as a function of time for up to 3 hours. Data were analyzed using GraphPad Prism software.

P. aeruginosa = assay: microbe, parasite or virus in culture
Protocol: as §1, §2

E. coli = assay: microbe, parasite or virus in culture
Protocol: as §1, §2

Enterobacter spp = assay: MIC growth inhibition assay in MHB2; format: cell-based, Enterobacter spp: EA (aerogenes), EC (cloacae)
Protocol: as §1, §2

K. pneumoniae = assay: MIC growth inhibition assay in MHB2; format: cell-based, klebsiella pneumoniae; settings: read-out: MIC
Protocol: as §1, §2

human red blood cells = settings: at 16 μM, published data; cited from earlier work

| Compound | MIC (A. baumannii; strain AB-A2) | MIC (A. baumannii; strain AB-A3) | MIC (A. baumannii; strain AB-F8) | MIC (A. baumannii; strain AB-F9) | MIC (E. coli; strain YDC337) | MIC (E. coli; strain YDC748) | MIC (Enterobacter spp; strain EA518 (aerogenes)) | MIC (Enterobacter spp; strain EA596 (aerogenes)) | MIC (Enterobacter spp; strain EC470 (cloacae)) | MIC (Enterobacter spp; strain EC560 (cloacae)) | MIC (K. pneumoniae; strain KPA5) | MIC (K. pneumoniae; strain KPB3) | also measured |
| --- | --- | --- | --- | --- | --- | --- | --- | --- | --- | --- | --- | --- | --- |
| CC(C)C[C@H](NC(=O)[C@H](Cc1ccccc1)NC(=O)[C@@H]1CCCN1C(=O)[C@H](Cc1c[nH]c2ccccc12)NC(=O)[C@H](Cc1c[nH]c2ccccc12)NC(=O)[C@H](Cc1c[nH]c2ccccc12)NC(=O)[C@@H]1CCCN1C(=O)[C@H](Cc1ccccc1)NC(=O)[C@H](CCCNC(=N)N)NC(=O)[C@H](CCCNC(=N)N)NC(=O)[C@@H](N)C(C)C)C(=O)N[C@@H](CCCNC(=N)N)C(=O)N[C@@H](CCCNC(=N)N)C(=O)O [tritrpticin] | – | – | – | – | – | – | – | – | – | – | – | – | mean MIC [1]: > 10 µM |
| NC[C@H]1O[C@H](O[C@H]2[C@H](O)[C@@H](O[C@H]3O[C@H](CO)[C@@H](O)[C@H](N)[C@H]3O)[C@H](N)C[C@@H]2N)[C@H](N)C[C@@H]1O [Tob] | 0.5 µM (≈ 0.234 µg/mL) | 16 µM (≈ 7.48 µg/mL) | >16 µM | 2 µM (≈ 0.935 µg/mL) | >16 µM | 16 µM (≈ 7.48 µg/mL) | >16 µM | >16 µM | 4 µM (≈ 1.87 µg/mL) | >16 µM | >16 µM | >16 µM | MIC (P. aeruginosa; strain PA01): 1 µM (≈ 0.468 µg/mL); MIC (P. aeruginosa; strain PA14): 0.5 µM (≈ 0.234 µg/mL); MIC (P. aeruginosa; strain PA97-5): >16 µM; MIC (P. aeruginosa; strain PA129-5): 16 µM (≈ 7.48 µg/mL) |
| Ac-LKRVWKRVFKLLKRYWRQLKKPVR-NH2 [SAAP-148] | – | – | – | – | – | – | – | – | – | – | – | – | red blood cell (RBC) lysis (human red blood cells): only moderate |
| C[C@@H](O)[C@H]1C(=O)N2C(C(=O)O)=C(S[C@@H]3CN[C@H](C(=O)N(C)C)C3)[C@H](C)[C@H]12 [Mero] | 4 µM (≈ 1.53 µg/mL) | >16 µM | 8 µM (≈ 3.07 µg/mL) | 8 µM (≈ 3.07 µg/mL) | 8 µM (≈ 3.07 µg/mL) | 8 µM (≈ 3.07 µg/mL) | >16 µM | 16 µM (≈ 6.14 µg/mL) | >16 µM | 16 µM (≈ 6.14 µg/mL) | 2 µM (≈ 0.767 µg/mL) | 2 µM (≈ 0.767 µg/mL) | MIC (E. coli; strain Eco25922): 0.5 µM (≈ 0.192 µg/mL); MIC (E. coli; strain YDC107): 1 µM (≈ 0.383 µg/mL); MIC (K. pneumoniae; strain KP43816): 1 µM (≈ 0.383 µg/mL); MIC (K. pneumoniae; strain KPC3): 1 µM (≈ 0.383 µg/mL) |
